Counter-ions that a name gives are not always drawn.
Biological target: T1, sodium channel (ENaC), canine bronchial epithelia (Canis lupus familiaris, UniProt A0A8I3MKE6+A0A8I3Q679+Q95165)
T1 construct: endogenous in cells; host or cells: primary canine bronchial epithelial cells cultured at air-liquid interface, mounted in Ussing chambers
T1 sequence (A0A8I3Q679 1-649): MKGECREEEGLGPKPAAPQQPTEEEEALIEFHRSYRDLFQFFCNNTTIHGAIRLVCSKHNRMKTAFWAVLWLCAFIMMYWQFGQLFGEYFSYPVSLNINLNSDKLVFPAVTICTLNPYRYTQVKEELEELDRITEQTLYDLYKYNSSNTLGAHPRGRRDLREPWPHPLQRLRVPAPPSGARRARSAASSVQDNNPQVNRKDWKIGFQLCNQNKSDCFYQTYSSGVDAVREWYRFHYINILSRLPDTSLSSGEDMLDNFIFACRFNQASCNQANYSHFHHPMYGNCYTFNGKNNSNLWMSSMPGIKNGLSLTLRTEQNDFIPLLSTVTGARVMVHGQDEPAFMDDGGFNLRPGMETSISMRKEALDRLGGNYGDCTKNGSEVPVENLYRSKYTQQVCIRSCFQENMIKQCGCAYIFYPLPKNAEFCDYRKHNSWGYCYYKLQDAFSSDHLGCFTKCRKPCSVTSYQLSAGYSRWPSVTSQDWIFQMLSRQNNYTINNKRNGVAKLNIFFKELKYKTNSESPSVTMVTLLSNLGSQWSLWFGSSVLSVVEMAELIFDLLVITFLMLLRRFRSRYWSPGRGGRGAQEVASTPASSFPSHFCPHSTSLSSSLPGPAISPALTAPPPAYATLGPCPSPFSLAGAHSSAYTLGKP
T1 sequence (Q95165 1-641): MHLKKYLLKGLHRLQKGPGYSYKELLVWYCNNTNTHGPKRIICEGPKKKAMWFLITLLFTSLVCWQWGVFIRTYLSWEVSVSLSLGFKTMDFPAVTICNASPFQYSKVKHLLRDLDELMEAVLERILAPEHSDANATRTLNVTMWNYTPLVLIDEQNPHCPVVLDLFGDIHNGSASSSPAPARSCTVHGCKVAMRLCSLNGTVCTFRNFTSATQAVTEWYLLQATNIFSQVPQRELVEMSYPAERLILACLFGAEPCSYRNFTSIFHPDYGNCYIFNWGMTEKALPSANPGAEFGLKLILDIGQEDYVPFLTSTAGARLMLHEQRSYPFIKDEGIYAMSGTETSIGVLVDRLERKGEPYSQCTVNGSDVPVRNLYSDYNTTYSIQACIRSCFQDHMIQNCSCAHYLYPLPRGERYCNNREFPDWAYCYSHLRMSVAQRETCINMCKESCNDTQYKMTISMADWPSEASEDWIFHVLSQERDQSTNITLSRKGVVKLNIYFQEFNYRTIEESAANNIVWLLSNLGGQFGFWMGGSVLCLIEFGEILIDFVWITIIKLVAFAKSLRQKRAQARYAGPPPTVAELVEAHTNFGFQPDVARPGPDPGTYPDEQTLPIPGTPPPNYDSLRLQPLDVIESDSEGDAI
T1 sequence (A0A8I3MKE6 1-646): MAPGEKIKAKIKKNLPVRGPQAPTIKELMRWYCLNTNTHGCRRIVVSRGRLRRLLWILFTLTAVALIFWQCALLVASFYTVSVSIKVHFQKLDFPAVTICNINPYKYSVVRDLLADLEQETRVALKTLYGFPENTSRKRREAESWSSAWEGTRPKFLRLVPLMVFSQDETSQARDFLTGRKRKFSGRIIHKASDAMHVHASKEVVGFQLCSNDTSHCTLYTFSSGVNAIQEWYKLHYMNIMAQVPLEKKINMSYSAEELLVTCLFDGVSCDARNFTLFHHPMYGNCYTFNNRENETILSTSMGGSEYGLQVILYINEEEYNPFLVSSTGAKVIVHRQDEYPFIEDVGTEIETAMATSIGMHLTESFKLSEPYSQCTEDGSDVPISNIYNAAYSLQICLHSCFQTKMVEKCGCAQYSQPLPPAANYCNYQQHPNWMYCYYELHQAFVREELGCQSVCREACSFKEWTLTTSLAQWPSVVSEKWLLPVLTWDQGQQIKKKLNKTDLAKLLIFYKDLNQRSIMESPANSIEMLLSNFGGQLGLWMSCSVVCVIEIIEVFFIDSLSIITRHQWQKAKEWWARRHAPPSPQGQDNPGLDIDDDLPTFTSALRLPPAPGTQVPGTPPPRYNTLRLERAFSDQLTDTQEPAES
Experiment: In vitro measure of sodium channel blocking activity: inhibition of short circuit current (ISC) in airway epithelial monolayers in Ussing chambers
Type: cell-based
Conditions: mean of N runs; for Fold Amiloride** (PSA 4022 = 100) Mean: relative potency for PSA 4022 = 100 using EC50 from PSA 4022 in same run
Experimental: One assay used to assess mechanism of action and/or potency of the compounds of the present invention involves the determination of lumenal drug inhibition of airway epithelial sodium currents measured under short circuit current (ISC) using airway epithelial monolayers mounted in Ussing chambers. Cells obtained from freshly excised human, dog, sheep or rodent airways are seeded onto porous 0.4 micron Snapwell™ Inserts (CoStar), cultured at air-liquid interface (ALI) conditions in hormonally defined media, and assayed for sodium transport activity (ISC) while bathed in Krebs Bicarbonate Ringer (KBR) in Using chambers. All test drug additions are to the lumenal bath with half-log dose addition protocols (from 1×10^−11 M to 3×10^−5M), and the cumulative change in ISC (inhibition) recorded. All drugs are prepared in dimethyl sulfoxide as stock solutions at a concentration of 1×10^−2 M and stored at −20° C. […] After the maximal concentration (5×10^−5 M) is administered, the lumenal bath is exchanged three times with fresh drug-free KBR solution, and the resultant ISC measured after each wash for approximately 5 minutes in duration. Reversibility is defined as the percent return to the baseline value for sodium current after the third wash. All data from the voltage clamps are collected via a computer interface and analyzed off-line.
Dose-effect relationships for all compounds are considered and analyzed by the Prism 3.0 program.
PSA 4022 was also tested in each assay as a positive control.

Row | SMILES | EC50 | Fold Amiloride** (PSA 4022 = 100) Mean
1 | N=C(NCCCCc1ccc(NCCN(C[C@H](O)[C@H](O)CO)C[C@H](O)[C@H](O)CO)cc1)NC(=O)c1nc(Cl)c(N)nc1N [PSA 17218, N-[4-(4-{2-[bis-((2S,3R)-2,3,4-trihydroxybutyl)amino]ethylamino}phenyl)butyl]-N′-(3,5-diamino-6-chloropyrazine-2-carbonyl)guanidine trihydrochloride] | 32.4 nM | 24.7
2 | Cl.N=C(N)NCC(O)COc1ccc(CCCCNC(=N)NC(=O)c2nc(Cl)c(N)nc2N)cc1 (centres unmarked) [PSA 11975, N-(3,5-diamino-6-chloropyrazine-2-carbonyl)-N′-{4-[4-(3-guanidino-2-hydroxypropoxy)phenyl]butyl}guanidine hydrochloride] | 4.85 nM | 287
3 | COC(=O)[C@@H](N)COc1ccc(CCCCNC(=N)NC(=O)c2nc(Cl)c(N)nc2N)cc1 [PSA 11041, 2-amino-3-(4-{4-[N′-(3,5-diamino-6-chloropyrazine-2-carbonyl)-guanidino]butyl}phenoxy)propionic acid methyl ester] | 32 nM | 38.6
4 | N=C(NCCCCc1ccc(OCCNCC(N)C(N)=O)cc1)NC(=O)c1nc(Cl)c(N)nc1N (centres unmarked) [PSA 18704, 2-amino-3-[2-(4-{4-[N′-(3,5-diamino-6-chloropyrazine-2-carbonyl)-guanidino]butyl}phenoxy)ethylamino]propionamide tri-hydrochloride] | 14.1 nM | 90.2
5 | N=C(NCCCCc1ccc(NCCCC(N)=O)cc1)NC(=O)c1nc(Cl)c(N)nc1N [PSA 18150, 4-(4-(4-[N′-(3,5-diamino-6-chloropyrazine-2-carbonyl)guanidino]-butyl}phenylamino)butyramide dihydrochloride] | 23.8 nM | 44.4
6 | N=C(NCCCCc1ccc(OCC(=O)N(CCO)CCO)cc1)NC(=O)c1nc(Cl)c(N)nc1N [PSA 16826, 2-(4-{4-[N′-(3,5-diamino-6-chloropyrazine-2-carbonyl)guanidino]-butyl}phenoxy)-N,N-bis-(2-hydroxyethyl)acetamide] | 12.7 nM | 64.9
7 | N=C(NCCCCc1ccc(OC[C@H](N)C(=O)O)cc1)NC(=O)c1nc(Cl)c(N)nc1N (stereo in doubt) [PSA 10941, 2-amino-3-(4-{4-[N′-(3,5-diamino-6-chloropyrazine-2-carbonyl)-guanidino]butyl}phenoxy)propionic acid] | 32.1 nM | 30.0
8 | Cl.N=C(N)NCCNC(=O)c1ccc(CCCCNC(=N)NC(=O)c2nc(Cl)c(N)nc2N)cc1 [PSA 11834, 4-{4-[N′-(3,5-diamino-6-chloropyrazine-2-carbonyl)guanidino]butyl}-N-(2-guanidinoethyl)benzamide hydrochloride] | 3.68 nM | 276
9 | N=C(NCCCCc1ccc(SCCC(N)=O)cc1)NC(=O)c1nc(Cl)c(N)nc1N [PSA 19605, 3-(4-{4-[N′-(3,5-diamino-6-chloropyrazine-2-carbonyl)guanidino]butyl}phenylthio)propionamide] | 4.7 nM | 145
10 | N=C(NCCCCc1ccc(NC[C@@H](O)CO)cc1)NC(=O)c1nc(Cl)c(N)nc1N [PSA 16722, N-(3,5-diamino-6-chloropyrazine-2-carbonyl)-N′-{4-[4-((2R)-2,3-dihydroxypropylamino)phenyl]butyl}guanidine] | 22.8 nM | 50.5
11 | N=C(N)NCCC(=O)Nc1ccc(CCCCNC(=N)NC(=O)c2nc(Cl)c(N)nc2N)cc1 [PSA 14984, N-(4-{4-[N′-(3,5-diamino-6-chloropyrazine-2-carbonyl)guanidino]-butyl}phenyl)-3-guanidinopropionamide dihydrochloride] | 3.27 nM | 268
12 | N=C(NCCCCc1ccc(C(=O)NCCN)cc1)NC(=O)c1nc(Cl)c(N)nc1N [PSA 11698, 4-{4-[N-(3,5-diamino-6-chloropyrazine-2-carbonyl)guanidino]butyl}-N-(2-aminoethyl)benzamide hydrochloride] | 5.82 nM | 136
13 | N=C(NCCCCc1ccc(NCCNC[C@@H](O)CO)cc1)NC(=O)c1nc(Cl)c(N)nc1N [PSA 16721, N-(4-{4-[{2-[((2R)-2,3-dihydroxypropyl)amino]ethylamino}phenyl)butyl-N′-(3,5-diamino-6-chloropyrazine-2-carbonyl)guanidinetrihydrochloride] | 25.4 nM | 44.7
14 | N=C(NCCCCc1ccc(NCCN)cc1)NC(=O)c1nc(Cl)c(N)nc1N [PSA 16436, N-{4-[4-(2-aminoethylamino)phenyl]butyl}-N′-(3,5-diamino-6-chloropyrazine-2-carbonyl)guanidine] | 15.4 nM | 35.6
15 | N=C(NCCCCc1ccc(NCCCC(=O)O)cc1)NC(=O)c1nc(Cl)c(N)nc1N [PSA 18345, 4-(4-{4-[N′-(3,5-diamino-6-chloropyrazine-2-carbonyl)guanidino]-butyl}phenylamino)butyric acid] | 69 nM | 12 .4
16 | CS(=O)(=O)N(c1ccc(CCCCNC(=N)NC(=O)c2nc(Cl)c(N)nc2N)cc1)S(C)(=O)=O [PSA 10316, N-(3,5-Diamino-6-chloropyrazine-2-carbonyl)-N′-[4-(4-bis(methanesulfonyl)aminophenyl)butyl]guanidine] | 9.56 nM | 132
17 | N=C(NCCCCc1ccc(NCC(N)=O)cc1)NC(=O)c1nc(Cl)c(N)nc1N [PSA 15104, 2-(4-{4-[N′-(3,5-diamino-6-chloropyrazine-2-carbonyl)guanidino]-butyl}phenylamino)acetamide dihydrochloride] | 19.1 nM | 26.4
18 | N=C(N)NCCNc1ccc(CCCCNC(=N)NC(=O)c2nc(Cl)c(N)nc2N)cc1 [PSA 17339, N-(3,5-diamino-6-chloropyrazine-2-carbonyl)-N′-{4-[(2-guanidinoethylamino)phenyl]butyl}guanidine trihydrochloride] | 6.83 nM | –
